From patent US8999326B2, “Oncotherapeutic application of inhibitors of high-affinity glucose transporters” (University of South Florida, priority 2007, dated 2015)

These molecules were tested on H1299, H1650 and MCF-7 cells (assay: BrdU proliferation assay, statements for all three cell lines). Details: 5 μM cisplatin, 5 μM paclitaxel or 10 μM gefitinib.
Format: cell-based, human
Procedure: FIGS. 5A-5C show the combined effect of chemotherapeutic drugs and Glut-1 antibody on cell proliferation. H1299 (FIG. 5A), H1650 (FIG. 5B), and MCF-7 (FIG. 5C) cells were grown on chamber slides as described above and treated either with cisplatin, paclitaxel or iressa in presence or absence of Glut-1 antibody (0.1 mg) for 18 hours. The proliferation was measured by BrdU incorporation.
MCF-7, H1299 and H1650 cells were plated onto poly-D-lysine (Sigma) coated 8-well glass chamber slides (10,000 cells per well). The cells were incubated with 0.1 mg/ml Glut-1 monoclonal antibody for 18 hours. The cells were fixed and stained using 5-Bromo-2′ deoxyuridine labeling and detection kit from ROCHE according to manufacturer's protocol.
Experiments were done to evaluate whether anti-Glut-1 antibody could synergize with standard chemotherapeutic agents to inhibit proliferation of H1299, H1650 and MCF-7. The cells were plated on chamber slides and incubated in presence of chemotherapeutic agents (5 μM cisplatin, 5 μM paclitaxel or 10 μM geftinib) in absence or presence of 0.1 mg/ml anti-Glut-1 antibody.

Compound	effect of drug alone on proliferation
N.N.[Cl][Pt][Cl] [cisplatin]	significant decrease in proliferation
CC(=O)O[C@H]1C(=O)[C@@]2(C)[C@H]([C@H](OC(=O)c3ccccc3)[C@]3(O)C[C@H](OC(=O)[C@H](O)[C@@H](NC(=O)c4ccccc4)c4ccccc4)C(C)=C1C3(C)C)[C@]1(OC(C)=O)CO[C@@H]1C[C@@H]2O [paclitaxel]	significant decrease in proliferation
COc1cc2ncnc(Nc3ccc(F)c(Cl)c3)c2cc1OCCCN1CCOCC1 [gefitinib]	significant decrease in proliferation
